According to ChEMBL document CHEMBL3526109 (Drug Metab Dispos, 2011):

Columns and labels:
Conditions in all cases: in vivo
[1] = system: Plasma; test: Drug level in cynomolgus monkey plasma assessed as compound formation treated with [14C]brivanib alaninate at 10 mg/kg, po administered as single dose via gavage measured after 4 hrs by HPLC analysis; type: ADME, organism-based, Macaca fascicularis
[2] = Drug excretion in cynomolgus monkey urine treated with [14C]brivanib alaninate at 10 mg/kg, po administered as single dose via gavage by HPLC analysis; type: ADME, organism-based, Macaca fascicularis
[3] = Drug excretion in bile duct-cannulated cynomolgus monkey bile treated with [14C]brivanib alaninate at 10 mg/kg, po administered as single dose via gavage by HPLC analysis; type: ADME, organism-based, Macaca fascicularis
[4] = Drug excretion in bile duct-cannulated rat bile treated with [14C]brivanib alaninate at 100 mg/kg, po administered as single dose via gavage by HPLC analysis; type: ADME, organism-based
[5] = system: Plasma; test: Drug level in human plasma assessed as compound formation treated with [14C]brivanib alaninate at 800 mg, po administered as single dose via gavage measured after 2 hrs by HPLC analysis; type: ADME, organism-based
[6] = system: Plasma; test: Drug level in cynomolgus monkey plasma assessed as compound formation treated with [14C]brivanib alaninate at 10 mg/kg, po administered as single dose via gavage measured after 6 hrs by HPLC analysis; type: ADME, organism-based, Macaca fascicularis
[7] = system: Plasma; test: Drug level in human plasma assessed as compound formation treated with [14C]brivanib alaninate at 800 mg, po administered as single dose via gavage measured after 4 hrs by HPLC analysis; type: ADME, organism-based
[8] = system: Plasma; test: Drug level in Sprague-Dawley rat plasma assessed as compound formation treated with [14C]brivanib alaninate at 100 mg/kg, po administered as single dose via gavage measured after 1 hr by HPLC analysis; type: ADME, organism-based
[9] = system: Plasma; test: Drug level in human plasma assessed as compound formation treated with [14C]brivanib alaninate at 800 mg, po administered as single dose via gavage measured after 8 hrs by HPLC analysis; type: ADME, organism-based
[10] = system: Plasma; test: Drug level in cynomolgus monkey plasma assessed as compound formation treated with [14C]brivanib alaninate at 10 mg/kg, po administered as single dose via gavage measured after 1 hr by HPLC analysis; type: ADME, organism-based, Macaca fascicularis
[11] = system: Plasma; test: Drug level in Sprague-Dawley rat plasma assessed as compound formation treated with [14C]brivanib alaninate at 100 mg/kg, po administered as single dose via gavage measured after 6 hrs by HPLC analysis; type: ADME, organism-based
[12] = system: Plasma; test: Drug level in human plasma assessed as compound formation treated with [14C]brivanib alaninate at 800 mg, po administered as single dose via gavage measured after 12 hrs by HPLC analysis; type: ADME, organism-based
[13] = system: Plasma; test: Drug level in cynomolgus monkey plasma assessed as compound formation treated with [14C]brivanib alaninate at 10 mg/kg, po administered as single dose via gavage measured after 2 hrs by HPLC analysis; type: ADME, organism-based, Macaca fascicularis
[14] = system: Plasma; test: Drug level in cynomolgus monkey plasma assessed as compound formation treated with [14C]brivanib alaninate at 10 mg/kg, po administered as single dose via gavage measured after 12 hrs by HPLC analysis; type: ADME, organism-based, Macaca fascicularis
[15] = Drug excretion in cynomolgus monkey feces treated with [14C]brivanib alaninate at 10 mg/kg, po administered as single dose via gavage by HPLC analysis; type: ADME, organism-based, Macaca fascicularis
[16] = Drug excretion in Sprague-Dawley rat feces treated with [14C]brivanib alaninate at 100 mg/kg, po administered as single dose via gavage by HPLC analysis; type: ADME, organism-based
[17] = Drug excretion in human feces treated with [14C]brivanib alaninate at 800 mg, po administered as single dose […] by HPLC analysis; type: ADME, organism-based
[18] = Drug excretion in human urine treated with [14C]brivanib alaninate at 800 mg, po administered as single dose […] by HPLC analysis; type: ADME, organism-based
[19] = system: Plasma; test: Drug level in human plasma assessed as compound formation treated with [14C]brivanib alaninate at 800 mg, po administered as single dose via gavage measured after 1 hr by HPLC analysis; type: ADME, organism-based
[20] = system: Plasma; test: Drug level in Sprague-Dawley rat plasma assessed as compound formation treated with [14C]brivanib alaninate at 100 mg/kg, po administered as single dose via gavage measured after 2 hrs by HPLC analysis; type: ADME, organism-based
[21] = system: Homo sapiens; test: AUC (0 to 12 hrs) human plasma treated with [14C]brivanib alaninate at 800 mg, po administered as single oral dose by HPLC analysis; type: ADME, organism-based
[22] = system: Rattus norvegicus; test: AUC (0 to 6 hrs) Sprague-Dawley rat plasma treated with [14C]brivanib alaninate at 100 mg/kg, po administered as single oral dose by HPLC analysis; type: ADME, organism-based
[23] = system: Cynomolgus monkey; test: AUC (0 to 12 hrs) cynomolgus monkey plasma treated with [14C]brivanib alaninate at 10 mg/kg, po administered as single oral dose by HPLC analysis; type: ADME, organism-based, Macaca fascicularis
[24] = system: Cynomolgus monkey; test: Drug uptake in cynomolgus monkey plasma treated with [14C]brivanib alaninate assessed as AUC (0 to 12 hrs) of total radio activity at 10 mg/kg, po administered as single oral dose by HPLC analysis; type: ADME, organism-based, Macaca fascicularis
[25] = system: Rattus norvegicus; test: Drug uptake in Sprague-Dawley rat plasma treated with [14C]brivanib alaninate assessed as AUC (0 to 6 hrs) of total radio activity at 100 mg/kg, po administered as single oral dose by HPLC analysis; type: ADME, organism-based
[26] = system: Homo sapiens; test: Drug uptake in human plasma treated with [14C]brivanib alaninate assessed as AUC (0 to 12 hrs) of total radio activity at 800 mg, po administered as single oral dose by HPLC analysis; type: ADME, organism-based
[27] = Drug excretion in Sprague-Dawley rat urine treated with [14C]brivanib alaninate at 100 mg/kg, po administered as single dose via gavage by HPLC analysis; type: ADME, organism-based
[28] = Drug level in Sprague-Dawley rat urine treated with [14C]brivanib alaninate at 100 mg/kg, po administered as single dose via gavage by mass spectrometry; type: ADME, organism-based

Cc1cc2c(F)c(Oc3ncnn4cc(O[C@@H]5O[C@H](C(=O)O)[C@@H](O)[C@H](O)[C@H]5O)c(C)c34)ccc2[nH]1
Compound recovery [1]: metabolite_not_detected | Compound recovery [2]: 0.8% | Compound recovery [3]: metabolite_not_detected | Compound recovery [4]: 27.4% | Compound recovery [5]: 3% | Compound recovery [6]: metabolite_not_detected | Compound recovery [7]: metabolite_not_detected | Compound recovery [8]: 5.1% | Compound recovery [9]: 2% | Compound recovery [10]: metabolite_not_detected | Compound recovery [11]: 9.1% | Compound recovery [12]: 1.2% | Compound recovery [13]: metabolite_not_detected | Compound recovery [14]: metabolite_not_detected | Compound recovery [15]: metabolite_not_detected | Compound recovery [16]: metabolite_not_detected | Compound recovery [17]: metabolite_not_detected | Compound recovery [18]: 0.8% | Compound recovery [19]: 0.8% | Compound recovery [20]: 6.5%

Cc1cc2c(F)c(Oc3ncnn4cc(OS(=O)(=O)O)c(C)c34)ccc2[nH]1
Compound recovery [1]: 9.4% | Compound recovery [2]: 0.7% | Compound recovery [3]: 1.9% | Compound recovery [4]: 25.4% | Compound recovery [5]: 6.7% | Compound recovery [6]: 9.1% | Compound recovery [7]: 4.4% | AUC [21]: 3835.4 ugequiv/l.hr | Compound recovery [8]: 30.7% | Compound recovery [9]: 7.6% | Compound recovery [10]: 2.9% | AUC [22]: 37494.4 ugequiv/l.hr | AUC [23]: 5622.3 ugequiv/l.hr | Compound recovery [11]: 20.9% | Compound recovery [12]: 8.9% | Compound recovery [13]: 5.9% | Compound recovery [14]: 5.7% | AUC metabolite/AUC radiolabel [24]: 8.1% | Compound recovery [15]: metabolite_not_detected | AUC metabolite/AUC radiolabel [25]: 26.8% | Compound recovery [16]: 4.6% | Compound recovery [17]: metabolite_not_detected | Compound recovery [18]: metabolite_not_detected | Compound recovery [19]: 8.8% | AUC metabolite/AUC radiolabel [26]: 5.8% | Compound recovery [20]: 26.8% | Compound recovery [27]: 2.7%

Cc1c(O)cn2ncnc(Oc3ccc4[nH]c(C(=O)O)cc4c3F)c12
Compound recovery [2]: metabolite_not_detected | Compound recovery [3]: metabolite_not_detected | Compound recovery [4]: 1.8% | Compound recovery [15]: metabolite_not_detected | Compound recovery [16]: metabolite_not_detected | Compound recovery [17]: metabolite_not_detected | Compound recovery [18]: metabolite_not_detected | Compound recovery [28]: metabolite_detected

Cc1c(OS(=O)(=O)O)cn2ncnc(Oc3ccc4[nH]c(C(=O)O)cc4c3F)c12
Compound recovery [1]: 4.6% | Compound recovery [2]: 0.3% | Compound recovery [3]: 1.4% | Compound recovery [4]: 4% | Compound recovery [5]: 11.3% | Compound recovery [6]: 9.1% | Compound recovery [7]: 20% | AUC [21]: 9668.9 ugequiv/l.hr | Compound recovery [8]: 18.2% | Compound recovery [9]: 23% | Compound recovery [10]: 3.3% | AUC [22]: 29545.4 ugequiv/l.hr | AUC [23]: 4597.3 ugequiv/l.hr | Compound recovery [11]: 20% | Compound recovery [12]: 24.3% | Compound recovery [13]: 3% | Compound recovery [14]: 12.5% | AUC metabolite/AUC radiolabel [24]: 6.6% | Compound recovery [15]: metabolite_not_detected | AUC metabolite/AUC radiolabel [25]: 21.1% | Compound recovery [16]: metabolite_not_detected | Compound recovery [17]: metabolite_not_detected | Compound recovery [18]: 3.3% | Compound recovery [19]: metabolite_not_detected | AUC metabolite/AUC radiolabel [26]: 14.7% | Compound recovery [20]: 22.1% | Compound recovery [27]: 5.1%

Cc1c(O)cn2ncnc(Oc3ccc4[nH]c(CO)cc4c3F)c12
Compound recovery [2]: metabolite_not_detected | Compound recovery [3]: metabolite_not_detected | Compound recovery [4]: metabolite_not_detected | Compound recovery [15]: metabolite_not_detected | Compound recovery [16]: 1.5% | Compound recovery [17]: metabolite_not_detected | Compound recovery [18]: metabolite_not_detected | Compound recovery [27]: 0.4%

Cc1c(OS(=O)(=O)O)cn2ncnc(Oc3ccc4[nH]c(CO)cc4c3F)c12
Compound recovery [2]: metabolite_not_detected | Compound recovery [3]: 0.4% | Compound recovery [4]: metabolite_not_detected | Compound recovery [15]: metabolite_not_detected | Compound recovery [16]: metabolite_not_detected | Compound recovery [17]: metabolite_not_detected | Compound recovery [18]: metabolite_not_detected | Compound recovery [27]: metabolite_not_detected

Cc1cc2c(F)c(Oc3ncnn4cc(OCC(=O)O)c(C)c34)ccc2[nH]1
Compound recovery [1]: 2.7% | Compound recovery [2]: 0.2% | Compound recovery [3]: metabolite_not_detected | Compound recovery [4]: 1.4% | Compound recovery [5]: metabolite_not_detected | Compound recovery [6]: 2.6% | Compound recovery [7]: metabolite_not_detected | Compound recovery [8]: 4.7% | Compound recovery [9]: metabolite_not_detected | Compound recovery [10]: 0.9% | Compound recovery [11]: 6% | Compound recovery [12]: metabolite_not_detected | Compound recovery [13]: 1.7% | Compound recovery [14]: 3.3% | Compound recovery [15]: 0.5% | Compound recovery [16]: 1.8% | Compound recovery [17]: metabolite_not_detected | Compound recovery [18]: metabolite_not_detected | Compound recovery [19]: metabolite_not_detected | Compound recovery [28]: metabolite_detected | Compound recovery [20]: 6.4%

Cc1cc2c(F)c(Oc3ncnn4cc(O)c(C)c34)ccc2[nH]1
Compound recovery [1]: metabolite_not_detected | Compound recovery [2]: metabolite_not_detected | Compound recovery [3]: 0.4% | Compound recovery [4]: 10.8% | Compound recovery [5]: metabolite_not_detected | Compound recovery [6]: metabolite_not_detected | Compound recovery [7]: metabolite_not_detected | Compound recovery [8]: 2.4% | Compound recovery [9]: metabolite_not_detected | Compound recovery [10]: metabolite_not_detected | Compound recovery [11]: 1.7% | Compound recovery [12]: metabolite_not_detected | Compound recovery [13]: metabolite_not_detected | Compound recovery [14]: metabolite_not_detected | Compound recovery [15]: 1.8% | Compound recovery [16]: 42.8% | Compound recovery [17]: metabolite_not_detected | Compound recovery [18]: metabolite_not_detected | Compound recovery [19]: metabolite_not_detected | Compound recovery [20]: 1.9%
